The nature of data set [1]: in vitro. The note with it: CD-1, mouse, liver microsomes. On the technique in general: Microsomes from liver hold many membrane-bound enzymes, among them those of drug oxidation.
Description: Half life in CD-1 mouse liver microsomes at 1 uM by LC-MS/MS analysis
Data set [2] can be described thus: Solubility of the compound in PBS buffer at pH 7.4 after 24 hrs by LC-MS analysis. The class given is physicochemical.

The values that follow come from ChEMBL document CHEMBL1944547, “Ethionamide boosters. 2. Combining bioisosteric replacement and structure-based drug design to solve pharmacokinetic issues in a series of potent 1,2,4-oxadiazole EthR inhibitors” (J Med Chem, 2012).

Converted amounts (≈) assume the structure as drawn.

The half-life is how long it takes for the measured level to halve. Read a high half-life as slow decline. As to `O=C(CCC(F)(F)F)N1CCC(c2nc(-c3cccs3)no2)CC1`, the half-life at 1 µM in data set [1] was found to be 5 min.
As a reminder, the solubility is the dissolved amount per volume that the medium holds. In data set [1], `O=C(CCC(F)(F)F)N1CCC(c2nc(-c3nccs3)no2)CC1` yielded a half-life at 1 µM of 34 min. This compound also came in with a solubility at 24 h in data set [2] of 300 µg/mL (≈ 832 µM).
Take `COc1ccc2nc(-c3noc(C4CCN(C(=O)CCC(F)(F)F)CC4)n3)sc2c1`: the half-life at 1 µM in data set [1] was found to be 6 min. The same compound showed a solubility at 24 h in data set [2] of 6 µg/mL (≈ 13.6 µM).
On to `O=C(CCC(F)(F)F)N1CCC(c2nc(-c3ccccc3)no2)CC1`, for which, in data set [2], the solubility at 24 h worked out at 40 µg/mL (≈ 113 µM).
Take `O=C(CCCC(F)(F)F)N1CCC(c2nc(-c3nccs3)no2)CC1`: in data set [1], the half-life at 1 µM worked out at 81 min.
